SMILES strings stand for the structures. Converted amounts (≈) assume the structure as drawn.

The target in series [1] is T1, purified human PRX3 (Homo sapiens, UniProt P30048).
T1 construct: made in house
T1 sequence (P30048 62-256): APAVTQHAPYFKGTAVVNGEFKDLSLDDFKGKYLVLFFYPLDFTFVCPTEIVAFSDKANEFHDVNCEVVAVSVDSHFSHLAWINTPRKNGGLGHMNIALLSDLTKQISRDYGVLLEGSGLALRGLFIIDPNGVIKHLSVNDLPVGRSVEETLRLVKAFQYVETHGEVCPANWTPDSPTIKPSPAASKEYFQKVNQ
Kind of series: Biochemical PRX3 Inhibition Assay (non-reducible crosslink by SDS PAGE + single adduct by MALDI-TOF MS). As to conditions: 100 μM PRX3 with TRX2/thioredoxin reductase/NADPH system and hydrogen peroxide, 1-2 hr at 37° C. The essentials:
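Purified human PRX3 (100 µM) cycled with TRX2, thioredoxin reductase, NADPH regenerating system and H2O2, incubated with compound 1–2 h at 37 °C. Non-reducible crosslink quantified by densitometry of SDS-PAGE (~46 vs ~23 kDa) after DTT; single-adduct fraction from MALDI-TOF MS peak intensities, background-corrected against DMSO.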

Series [2] has as its system human SK—OV-3 ovarian cancer cells. Briefly: Cellular Activity Assay (cytotoxicity, crystal violet). It is filed as cell-based. As to conditions: SK—OV-3 cells, treated for 48 hr, 0.1-100 μM, crystal violet absorbance at 540 nm. The procedure, abridged:
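SK-OV-3 cells plated, allowed 24 h recovery, then treated 48 hr with compound at 0.1-100 μM. Live cells were fixed (3.0% formaldehyde), stained with 0.1% crystal violet and read at 540 nm. EC50 was fitted after normalizing to matched-DMSO controls.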

A short description of series [3]: Solubility Assay (HPLC). As to conditions: HEPES/NaCl buffer, aqueous with cosolvent or surfactant or cyclodextrin, kinetic from dmso stock; 20 mM HEPES, 100 mM NaCl, pH 7.5, 18-24 hours at ambient temperature; read-out: Solubility. The format is physicochemical. The procedure, abridged: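 Compound from 20 mM DMSO stock added to 20 mM HEPES, 100 mM NaCl, pH 7.5, rotated 18-24 h at ambient temperature, then centrifuged 10 min at 20,000×g to remove solids. Supernatant diluted in DMSO and quantified by HPLC peak area against the closest of 200 μM and 20 μM standards, corrected for dilution.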

The test system of series [4] is Enterococcus hirae (ATCC #10541). Kind of series: Antimicrobial Activity Assay (MIC / growth inhibition). The format is cell-based. As to conditions: ATCC10541; Enterococcus hirae; analogs tested at 20 μM final concentration. How it is done: The overnight growth was then diluted into growth media to make a single solution of E. hirae with a final optical density at 600 nm=0.02 AU. A 20 mM stock solution of Thiostrepton in DMSO was made and used to make multiple dilutions of TS in DMSO. Each TS dilution (0.1 mL) was then added to a test tube containing 10 mL of the diluted E. hirae and grown at 37° C. overnight while shaking at 180 rpm. The next morning, each tube was visually inspected to determine if the cells grew. Final concentrations tested were 0.120, 0.090, 0.075, 0.060, 0.045, 0.030, and 0.015 μM TS. […] Three replicates were made on three separate days (n=9). […] For TS analogs, the dilute E. hirae was treated with 20 μM final concentration of each analog (three replicates each). […] DMSO was used as a positive control (complete cell growth) and 20 μM thiostrepton was used as a negative control.

In general, EC50 refers to the concentration at which the effect is half-maximal. Low values mean an effect from little substance, high ones a need for much substance. Broadly, the solubility is how much of the substance goes into solution per volume. As a reminder, the MIC is the lowest concentration found to suppress growth. A higher MIC goes with a less susceptible organism. Take `C=C(NC(=O)c1csc(-c2ccc(C(=O)NCCOC)cc2)n1)C(=O)NC(=C)C(=O)OC` [Compound 10, Methyl 2-(2-(2-(4-((2-methoxyethyl)carbamoyl)phenyl)thiazole-4-carboxamido)acrylamido)acrylate]: the “PRX3 Inhibition (Crosslink + Mono-adduct)” value (“PRX3 Inhibition” below) in series [1] was “+++ (>90%)”. The compound also displayed an EC50 in series [2] (Homo sapiens) of 1 to 10 µM. For the same compound, the solubility in series [3] was less than 100 µM. For the same compound, the MIC in series [4] is greater than 20 µM.
On to `C=C(NC(=O)c1csc(N2CCC[C@@H](NC(=O)OC(C)(C)C)C2)n1)C(=O)NC(=C)C(=O)OC` [Compound 11, Methyl (R)-2-(2-(2-(3-((tert-butoxycarbonyl)amino)piperidin-1-yl)thiazole-4-carboxamido)acrylamido)acrylate], for which the “PRX3 Inhibition” value in series [1] was “+++ (>90%)”. Also, the EC50 in series [2] (Homo sapiens) is 1 to 10 µM. Besides, in series [3], the solubility was less than 100 µM. Also, the MIC in series [4] was greater than 20 µM.
In the same order, the values of `C=C(NC(=O)c1csc(N2CCC(NC(=O)OC(C)(C)C)CC2)n1)C(=O)NC(=C)C(=O)OC` [Compound 12, Methyl 2-(2-(2-(4-((tert-butoxycarbonyl)amino)piperidin-1-yl)thiazole-4-carboxamido)acrylamido)acrylate] are “+++ (>90%)”, 1 to 10 µM, less than 100 µM and greater than 20 µM.
`C=C(NC(=O)c1csc(N2CCC(NC(=O)CCCCCNC(=O)OC(C)(C)C)CC2)n1)C(=O)NC(=C)C(=O)OC` [Compound 13, Methyl 2-(2-(2-(4-(6-((tert-butoxycarbonyl)amino)hexanamido)piperidin-1-yl)thiazole-4-carboxamido)acrylamido)acrylate]: the “PRX3 Inhibition” value in series [1] is reported as “+++ (>90%)”. For the same compound, the EC50 in series [2] (Homo sapiens, SK-OV-3, 48 h) is 1 to 10 µM. Further, the solubility in series [3] fell in the range of 100 to 1000 µM (≈ 59.3 to 593 µg/mL). Moreover, the MIC in series [4] is greater than 20 µM.
Regarding `C=C(NC(=O)c1csc(-c2cccc(C(=O)OC(C)(C)C)c2)n1)C(=O)NC(=C)C(=O)OC` [Compound 14, Tert-butyl 3-(4-((3-((3-methoxy-3-oxoprop-1-en-2-yl)amino)-3-oxoprop-1-en-2-yl)carbamoyl)thiazol-2-yl)benzoate], the “PRX3 Inhibition” value in series [1] is recorded as “+++ (>90%)”. For the same compound, the EC50 in series [2] (Homo sapiens) was 25 to 100 µM. Further, the solubility in series [3] is less than 100 µM. Besides, in series [4], the minimal inhibitory concentration (MIC) is greater than 20 µM.
Consider `C=C(NC(=O)c1csc(N2CCC(C(=O)NCCNC(=O)OC(C)(C)C)CC2)n1)C(=O)NC(=C)C(=O)OC` [Compound 15, Methyl 2-(2-(2-(4-((2-((tert-butoxycarbonyl)amino)ethyl)carbamoyl)piperidin-1-yl)thiazole-4-carboxamido)acrylamido)acrylate], for which, in series [1], the “PRX3 Inhibition” value was “+++ (>90%)”. Also, in series [2] (Homo sapiens), the EC50 lay in the range of 1 to 10 µM. For the same compound, in series [3], the solubility was less than 100 µM. The compound also returned an MIC in series [4] greater than 20 µM.
Consider `C=C(NC(=O)c1csc(-c2ccc(CNC(=O)CCCCCNC(=O)OC(C)(C)C)cc2)n1)C(=O)NC(=C)C(=O)OC` [Compound 16, Methyl 2-(2-(2-(4-((6-((tert-butoxycarbonyl)amino)hexanamido)methyl)phenyl)thiazole-4-carboxamido)acrylamido)acrylate], for which the “PRX3 Inhibition” value in series [1] is “+++ (>90%)”. Also, the EC50 in series [2] was 10 to 25 µM. In addition, the solubility in series [3] is less than 100 µM. This compound showed an MIC in series [4] greater than 20 µM.
For `C=C(NC(=O)c1csc(N2CCOCC2)n1)C(=O)NC(=C)C(=O)OC` [Compound 17, Methyl 2-(2-(2-morpholinothiazole-4-carboxamido)acrylamido)acrylate], the “PRX3 Inhibition” value in series [1] is “+++ (>90%)”. In series [2] (Homo sapiens), this compound came in with an EC50 of 10 to 25 µM. For the same compound, the solubility in series [3] fell in the range of 100 to 1000 µM (≈ 36.6 to 366 µg/mL). Also, the MIC in series [4] was greater than 20 µM.
The matching figures for `C=C(NC(=O)c1csc(N2CCN(C(=O)OC(C)(C)C)CC2)n1)C(=O)NC(=C)C(=O)OC` [Compound 18, Tert-butyl 4-(4-((3-((3-methoxy-3-oxoprop-1-en-2-yl)amino)-3-oxoprop-1-en-2-yl)carbamoyl)thiazol-2-yl)piperazine-1-carboxylate]: “+ (5-50%)”, 25 to 100 µM, 100 to 1000 µM (≈ 46.6 to 466 µg/mL) and greater than 20 µM.
As for `C=C(NC(=O)c1csc(N2CCC(NC(=O)CCCCCN=[N+]=[N-])CC2)n1)C(=O)NC(=C)C(=O)OC` [Compound 19, Methyl 2-(2-(2-(4-(6-azidohexanamido)piperidin-1-yl)thiazole-4-carboxamido)acrylamido)acrylate], the “PRX3 Inhibition” value in series [1] is “+++ (>90%)”. The same compound gave an EC50 in series [2] (Homo sapiens) of 1 to 10 µM. Further, in series [3], the solubility was less than 100 µM. Also, the MIC in series [4] was greater than 20 µM.
For the compound `C=C(NC(=O)c1csc(N2CCC[C@H](NC(=O)OC(C)(C)C)C2)n1)C(=O)NC(=C)C(=O)OC` [Compound 20, Methyl (S)-2-(2-(2-(3-((tert-butoxycarbonyl)amino)piperidin-1-yl)thiazole-4-carboxamido)acrylamido)acrylate], in series [1], the “PRX3 Inhibition” value is given as “+++ (>90%)”. This compound yielded an EC50 in series [2] (Homo sapiens) of 1 to 10 µM. The solubility in series [3] was less than 100 µM. The compound further gave an MIC in series [4] greater than 20 µM.
The matching figures for `C=C(NC(=O)c1csc(N2CCC(N(C)C(=O)OCC)CC2)n1)C(=O)NC(=C)C(=O)OC` [Compound 21, Methyl 2-(2-(2-(4-((ethoxycarbonyl)(methyl)amino)piperidin-1-yl)thiazole-4-carboxamido)acrylamido)acrylate]: “+++ (>90%)”, 1 to 10 µM, less than 100 µM and greater than 20 µM.
In the same order, the values of `C=C(NC(=O)c1csc(N2CCC(CNC(=O)OCC)CC2)n1)C(=O)NC(=C)C(=O)OC` [Compound 22, Methyl 2-(2-(2-(4-(((ethoxycarbonyl)amino)methyl)piperidin-1-yl)thiazole-4-carboxamido)acrylamido)acrylate] are “+++ (>90%)”, 1 to 10 µM, less than 100 µM and greater than 20 µM.
In the same order, the values of `C=C(NC(=O)c1csc(N2CC[C@@H](NC(=O)OCC)C2)n1)C(=O)NC(=C)C(=O)OC` [Compound 23, Methyl (R)-2-(2-(2-(3-((ethoxycarbonyl)amino)pyrrolidin-1-yl)thiazole-4-carboxamido)acrylamido)acrylate] are “+++ (>90%)”, 1 to 10 µM, less than 100 µM and greater than 20 µM.
As for `C=C(NC(=O)c1csc(-c2ccc(OCCOC)cc2)n1)C(=O)NC(=C)C(=O)OC` [Compound 24, Methyl 2-(2-(2-(4-(2-methoxyethoxy)phenyl)thiazole-4-carboxamido)acrylamido)acrylate], in series [1], the “PRX3 Inhibition” value is on record as “++ (50-90%)”. For the same compound, the EC50 in series [2] (Homo sapiens) is 1 to 10 µM. Further, the solubility in series [3] is less than 100 µM. The MIC in series [4] is greater than 20 µM.
Regarding `C=C(NC(=O)c1csc(-c2ccc(NC(=O)CCCCCN=[N+]=[N-])cc2)n1)C(=O)NC(=C)C(=O)OC` [Compound 25, Methyl 2-(2-(2-(4-(6-azidohexanamido)phenyl)thiazole-4-carboxamido)acrylamido)acrylate], in series [1], the “PRX3 Inhibition” value is listed as “++ (50-90%)”. In series [2] (Homo sapiens), the 50% effective concentration (EC50) lay within 10 to 25 µM. In addition, the solubility in series [3] is less than 100 µM. In series [4], this compound gave an MIC greater than 20 µM.
The matching figures for `C=C(NC(=O)c1csc(-c2ccc(CNC(=O)OCCOC)cc2)n1)C(=O)NC(=C)C(=O)OC` [Compound 26, Methyl 2-(2-(2-(4-((((2-methoxyethoxy)carbonyl)amino)methyl)phenyl)thiazole-4-carboxamido)acrylamido)acrylate]: “++ (50-90%)”, 1 to 10 µM, 100 to 1000 µM (≈ 48.9 to 489 µg/mL) and greater than 20 µM.

(Values after patent publication US20250011316A1, “PEROXIREDOXIN 3 INHIBITORS AND METHODS OF USE FOR TREATING CANCER” (Wake Forest University Health Sciences, priority 2022, published 2025).)
